Reference: patent US8883792B2, “Substituted isoquinoline derivative” (D. Western Therapeutics Institute, Inc., priority 2010, dated 2014)
Where a name gives a salt, the structure may show the parent alone.

Tests used:
[1] = tested on: spontaneously hypertensive rats (SHR/Izm); assay: Blood pressure lowering effect in spontaneously hypertensive rats; type: in vivo; conditions: Rattus norvegicus, ip, male SHR/Izm rats, intraperitoneal, measured over time, read-out: lowered the systolic blood pressures by up to, compared with the value before administration
Description: The compound of the present invention was intraperitoneally administered to spontaneously hypertensive rats (SHR/Izm, sex: male, 4 to 6 rats per group) and evaluated for its blood pressure lowering effect. The compounds of Examples 5, 23, 25, 35, 36, 53, 58, 83, 84, 86, 87, and 90 were used as test compounds.
Each test compound was dissolved in saline and diluted to prepare a test compound solution with a predetermined concentration.
The test compound was intraperitoneally administered at a dose of 10 mg/kg to the animals, and their blood pressures and pulse rates were measured over time using Softron Indirect Blood Pressure Meter BP-98A.

[2] = tested on: rabbits (New Zealand White); assay: Ocular hypotensive effect in rabbits; type: in vivo, rabbit; conditions: male New Zealand White rabbits, 0.04 mL eye drop, concentration of 1% (w/v) or lower, maximum ocular hypotensive rate vs vehicle-treated contralateral eye
How it was run: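 Male New Zealand White rabbits (3–6 per group) received 0.04 mL compound solution (pH 7.0 phosphate/NaCl vehicle or 2% boric acid) in one eye and vehicle in the other. IOP measured by rebound tonometer before dosing and over time; ocular hypotensive rate taken as treated-eye IOP relative to vehicle-eye IOP.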

Compound | inhibition in vivo at 10 mg/kg [1] | Ocular hypotensive activity [2]
CCCCNC[C@@H](C)NS(=O)(=O)c1ccc2cnccc2c1 [Example 5, (R)—N-{1-(butylamino)propan-2-yl}isoquinoline-6-sulfonamide dihydrochloride] | ≤ 16% | ++ (maximum ocular hypotensive rate of 15% or more)
C[C@H](CNCCc1ccccc1)NS(=O)(=O)c1ccc2cnccc2c1 [Example 23, (R)—N-{1-(phenethylamino)propan-2-yl}isoquinoline-6-sulfonamide dihydrochloride] | ≥ 30% | ++ (maximum ocular hypotensive rate of 15% or more)
C[C@H](CNC[C@H](C)c1ccccc1)NS(=O)(=O)c1ccc2cnccc2c1 [Example 25, N—[(R)-1-{(R)-2-phenylpropylamino}propan-2-yl]isoquinoline-6-sulfonamide dihydrochloride] | ≥ 30% | ++ (maximum ocular hypotensive rate of 15% or more)
C[C@H](CNCCCCc1ccccc1)NS(=O)(=O)c1ccc2cnccc2c1 [Example 35, (R)—N-{1-(4-phenylbutylamino)propan-2-yl}isoquinoline-6-sulfonamide dihydrochloride] | ≤ 20% | ++ (maximum ocular hypotensive rate of 15% or more)
C[C@H](CNCCc1c[nH]c2ccccc12)NS(=O)(=O)c1ccc2cnccc2c1.Cl [Example 36, (R)—N-[1-{2-(1H-indol-3-yl)ethylamino}propan-2-yl]isoquinoline-6-sulfonamide hydrochloride] | ≥ 30% | ++ (maximum ocular hypotensive rate of 15% or more)
C[C@H](CNCCc1ccc(F)cc1)NS(=O)(=O)c1ccc2cnccc2c1.Cl [Example 53, (R)—N-{1-(4-fluorophenethylamino)propan-2-yl}isoquinoline-6-sulfonamide hydrochloride] | ≥ 30% | ++ (maximum ocular hypotensive rate of 15% or more)
Cc1ccc(CCNC[C@@H](C)NS(=O)(=O)c2ccc3cnccc3c2)cc1.Cl [Example 58, (R)—N-{1-(4-methylphenethylamino)propan-2-yl}isoquinoline-6-sulfonamide hydrochloride] | ≥ 30% | ++ (maximum ocular hypotensive rate of 15% or more)
C[C@H](CNC[C@@H](O)c1ccccc1)NS(=O)(=O)c1ccc2cnccc2c1.Cl [Example 83, N—[(R)-1-{(S)-2-hydroxy-2-phenylethylamino}propan-2-yl]isoquinoline-6-sulfonamide hydrochloride] | ≥ 30% | ++ (maximum ocular hypotensive rate of 15% or more)
C[C@H](CNC[C@@H](O)c1ccc(F)cc1)NS(=O)(=O)c1ccc2cnccc2c1.Cl [Example 84, N—[(R)-1-{(S)-2-(4-fluorophenyl)-2-hydroxyethylamino}propan-2-yl]isoquinoline-6-sulfonamide hydrochloride] | ≤ 20% | ++ (maximum ocular hypotensive rate of 15% or more)
C[C@H](CNC[C@@](C)(O)c1ccccc1)NS(=O)(=O)c1ccc2cnccc2c1.Cl [Example 86, N—[(R)-1-{(S)-2-hydroxy-2-phenylpropylamino}propan-2-yl]isoquinoline-6-sulfonamide hydrochloride] | ≥ 30% | ++ (maximum ocular hypotensive rate of 15% or more)
C[C@H](CNC[C@H](O)c1ccccc1)NS(=O)(=O)c1ccc2cnccc2c1.Cl [Example 87, N—[(R)-1-{(R)-2-hydroxy-2-phenylethylamino}propan-2-yl]isoquinoline-6-sulfonamide hydrochloride] | ≤ 20% | ++ (maximum ocular hypotensive rate of 15% or more)
C[C@H](CNC[C@@H](O)c1ccsc1)NS(=O)(=O)c1ccc2cnccc2c1.Cl [Example 90, N—[(R)-1-{(S)-2-hydroxy-2-(thiophen-3-yl)ethylamino}propan-2-yl]isoquinoline-6-sulfonamide hydrochloride] | ≤ 20% | ++ (maximum ocular hypotensive rate of 15% or more)
C[C@@H](NS(=O)(=O)c1ccc2cnccc2c1)[C@@H](N)CCCc1ccccc1 [Example 117, N-{(2R,3S)-3-amino-6-phenylhexan-2-yl)isoquinoline-6-sulfonamide hydrochloride] |  | ++ (maximum ocular hypotensive rate of 15% or more)
CNC(CCc1ccccc1)C[C@@H](C)NS(=O)(=O)c1ccc2cnccc2c1 (stereo partly drawn) [Example 120, N-{(2R)-4-(methylamino)-6-phenylhexan-2-yl}isoquinoline-6-sulfonamide dihydrochloride] |  | ++ (maximum ocular hypotensive rate of 15% or more)
